Assay results taken from ChEMBL document CHEMBL1130617, “S-aryl cysteine S,S-dioxides as inhibitors of mammalian kynureninase” (Bioorg Med Chem Lett, 1998).

Legend:
Kynureninase [1] = target: T1, Kynureninase (Rattus norvegicus, UniProt P70712); experiment: Compound was tested for the binding affinity against kynureninase in rat liver
T1 sequence (P70712 whole entry): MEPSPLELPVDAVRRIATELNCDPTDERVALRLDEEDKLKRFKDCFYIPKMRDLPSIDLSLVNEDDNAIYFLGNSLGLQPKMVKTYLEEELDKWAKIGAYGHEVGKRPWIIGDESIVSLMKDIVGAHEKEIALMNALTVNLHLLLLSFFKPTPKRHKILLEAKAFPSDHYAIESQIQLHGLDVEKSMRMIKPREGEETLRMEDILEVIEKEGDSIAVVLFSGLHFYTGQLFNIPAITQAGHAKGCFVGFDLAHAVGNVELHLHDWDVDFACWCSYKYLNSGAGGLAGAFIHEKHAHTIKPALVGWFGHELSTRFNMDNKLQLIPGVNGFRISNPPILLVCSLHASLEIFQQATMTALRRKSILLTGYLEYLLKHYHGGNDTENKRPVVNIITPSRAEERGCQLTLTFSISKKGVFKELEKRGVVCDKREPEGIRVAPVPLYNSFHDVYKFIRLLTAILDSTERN

Kynureninase [2] = target: T1, Kynureninase; experiment: Compound was tested for the inhibition of mammalian kynureninase in rat liver; assay type: tissue-based

Ki (Kynureninase [1]) [µM]	IC50 (Kynureninase [2]) [µM]	SMILES
18	36	Nc1ccccc1S(=O)(=O)CC(N)C(=O)O (stereo not given)
–	20	Nc1c(F)cccc1S(=O)(=O)CC(N)C(=O)O (stereo not given)
–	29	COc1cccc(S(=O)(=O)CC(N)C(=O)O)c1N (stereo not given)
–	11	Cc1ccc(N)c(S(=O)(=O)CC(N)C(=O)O)c1 (stereo not given)
